Results: patent US8912194B2, “CDK inhibitor for the treatment of mesothelioma” (Nerviano Medical Sciences S.R.L., priority 2008, dated 2014)

Assays:
[1] = test system: cell cycle related markers in mesothelioma cell lines; test: Western blot analysis of cell cycle related markers, all cell lines; assay type: cell-based; details: all mesothelioma cell lines tested
Method: (§1) Treated cells were lysed by adding SDS sample buffer (0.125M Tris-HCl pH6.8, 5% SDS). Samples were heated to 95° C. for 5 minutes and then sonicated using an Ultrasonic 2000 ARTEK. Lysed cells were centrifuged at 13,000 RPM for 10 minutes. Protein quantification was determined using BCA buffer (Pierce) and a BSA standard curve. 20 μg protein extract per well were loaded and separated by SDS-PAGE gel 7.5-10% (PAGE-PLUS 40% concentrate AMRESCO). The gel was blotted onto nitrocellulose filters (Hybond Amersham) in a buffer containing 25 mM Tris HCl pH 8.3, 192 mM Glycine and 20% methanol. The filters were saturated in 5% low-fat milk in TBS containing 0.1% Tween 20 (TBS-T) for 2 hours at room temperature and than incubated overnight at 4° C. with the primary monoclonal followed by washes in TBS-T and incubation using a secondary anti mouse antibody. The bands were visualized using the “Super Signal West Pico” Pierce.

[2] = test system: mesothelioma cells (MSTO-211H, NCI-H2052, NCI-H28); test: Inhibition of cell proliferation, summary over all tested mesothelioma cells; assay type: cell-based; details: all the tested mesothelioma cells, 72 hours; read-out: IC50 range, inhibition of proliferation
Method: (§2) MSTO-211H, NCI-H2052 and NCI-H28 mesothelioma cell lines were cultured in RPMI 1640 added with 10% FCS, 2 mM glutamine, 1 mM sodium pyruvate and 10 mM HEPES. For all the experiments cells were seeded at the density of 1×10^4/cm^2, the day after treatment with the compound for the prescribed duration and then collected at the reported times.
(§3) Cells were washed and counted 72 hours after the treatment. Cell proliferation was determined by a cellular adenosine triphosphate monitoring system. Cell proliferation was compared to control cells. The concentration inhibiting cell proliferation by 50% (IC50) was calculated.

[3] = test system: NCI-H28 mesothelioma cell line; test: Analysis of cell cycle progression and apoptosis induction (cytofluorimetry, propidium iodide); assay type: cell-based; details: NCI-H28, 24 hours after treatment, cytofluorimetric analysis
Method: (§4) MSTO-211H, NCI-H2052 and NCI-H28 mesothelioma cell lines were cultured in RPMI 1640 added with 10% FCS, 2 mM glutamine, 1 mM sodium pyruvate and 10 mM HEPES. For all the experiments cells were seeded at the density of 1×10^4/cm^2, the day after treatment with the compound for the prescribed duration and then collected at the reported times. Cells were washed 24 hours after the treatment, fixed with cold methanol 70% and stored at −20° C. Fixed cells were washed with PBS to remove methanol and were stained with 25 μg/mL of propidium iodide, 5 μg/mL of RNase, and 0.125 μg/mL of Nonidet P 40. Cells were kept at room temperature for 60 minutes in the dark and were analyzed by BD FACSCalibur™ system interfaced to a Macintosh G4 computer with BD CellQuest™ 3.3 software. All doublets or aggregates were removed during analysis by an appropriate gate on an FL3-A/FL3-W dot plot and DNA content analysis was performed in ≧10,000 gated cells. DNA histograms (shown in FIG. 1) were analyzed using ModFit LT™

[4] = test system: NCI-H2052 mesothelioma cell line; test: as above; assay type: cell-based; details: NCI-H2052, 24 hours after treatment, cytofluorimetric analysis
Method: as §4

[5] = test system: MSTO-211H mesothelioma cell line; test: as above; assay type: cell-based
Method: as §4

[6] = test system: Rb phosphorylation, cyclin A and cdc6 expression in NCI-H28 cells; test: Western blot analysis of cell cycle related markers; assay type: cell-based; details: 1 and 3 μM, 24 hours, FIG. 2
Method: as §1

[7] = test system: NCI-H28 mesothelioma cell line; test: Inhibition of cell proliferation (cellular ATP monitoring); assay type: cell-based; details: Homo sapiens; NCI-H28, 72 hours after treatment
Method: as §2, §3

[8] = test system: NCI-H2052 mesothelioma cell line; test: as above; assay type: cell-based; details: Homo sapiens; NCI-H2052, 72 hours after treatment
Method: as §2, §3

[9] = test system: MSTO-211H mesothelioma cell line; test: as above; assay type: cell-based; details: Homo sapiens, 72 hours after treatment
Method: as §2, §3

[10] = test system: phosphorylation of AKT, S6 and MAPK in NCI-H28 cells; test: Western blot analysis of tyrosine kinase growth factor receptor mediated pathways; assay type: cell-based; details: 1 and 3 μM, FIG. 2
Method: as §1

[11] = biological target: Thropomyosin Receptor Kinase A (TRKA) (Homo sapiens, UniProt P04629); test: Scintillation Proximity Assay (SPA) for kinases; assay type: biochemical; details: read-out: IC50 (printed 1050) towards TRKA
Thropomyosin Receptor Kinase A (TRKA), sequence (P04629 33-796): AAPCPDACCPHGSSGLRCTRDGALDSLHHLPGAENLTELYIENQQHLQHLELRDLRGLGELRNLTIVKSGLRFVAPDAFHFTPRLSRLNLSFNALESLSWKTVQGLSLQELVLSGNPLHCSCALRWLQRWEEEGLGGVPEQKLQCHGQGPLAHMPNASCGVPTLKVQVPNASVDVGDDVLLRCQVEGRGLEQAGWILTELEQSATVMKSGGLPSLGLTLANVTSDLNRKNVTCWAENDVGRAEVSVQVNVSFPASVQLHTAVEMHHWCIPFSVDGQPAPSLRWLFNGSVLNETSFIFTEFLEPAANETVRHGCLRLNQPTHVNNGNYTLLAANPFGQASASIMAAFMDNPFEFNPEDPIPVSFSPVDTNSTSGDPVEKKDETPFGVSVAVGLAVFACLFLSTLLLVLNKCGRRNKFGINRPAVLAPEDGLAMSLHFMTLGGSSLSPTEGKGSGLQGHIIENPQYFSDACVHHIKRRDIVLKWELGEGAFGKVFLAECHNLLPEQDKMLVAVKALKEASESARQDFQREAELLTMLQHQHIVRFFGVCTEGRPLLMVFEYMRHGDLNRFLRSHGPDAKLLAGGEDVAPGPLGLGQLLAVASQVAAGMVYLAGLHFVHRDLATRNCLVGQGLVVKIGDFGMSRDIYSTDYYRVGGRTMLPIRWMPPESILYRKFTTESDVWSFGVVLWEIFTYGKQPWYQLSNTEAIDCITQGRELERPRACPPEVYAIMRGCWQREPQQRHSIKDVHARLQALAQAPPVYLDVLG
Method: This assay allows measurement of the inhibition of the kinase activity of a specific enzyme obtained with test compound. Different kinases can be tested in parallel.
A biotinylated substrate is trans-phosphorylated by a specific kinase in the presence of ATP including a γ33-ATP tracer. At the end of the reaction the phosphorylated substrate is then captured using Streptavidin-coated SPA beads. A dense 5M CsCl solution is added and the mixture is incubated for four hours. This causes the SPA beads to float to the top of the CsCl solution containing the unincorporated radiolabelled ATP.
The extent of phosphorylation is measured using a β-counter.

[12] = test system: mesothelioma; details: single agent, mesothelioma patients; cited from earlier work

| IC50 [2] | IC50 [7] | IC50 [8] | IC50 [9] | IC50 [11] | Compound | cell cycle related markers [1] | Sub G1 % (percentage of cells with a sub G1 DNA content, apoptosis) [3] | Sub G1 % (percentage of cells with a sub G1 DNA content, apoptosis) [4] | Effect on cell cycle progression ([5]; 1 μM, 24 hours, FIG. 1) | Sub G1 peak (induction of apoptosis) ([5]; 3 μM, 24 hours, FIG. 1) | Sub G1 % (percentage of cells with a sub G1 DNA content, apoptosis) ([5]; 24 hours after treatment, cytofluorimetric analysis) | Rb phosphorylation ([6]; NCI-H28 cells (mutated in p16/CDKN2A)) | cdc6 expression ([6]; NCI-H28 cells) | cyclin A expression ([6]; NCI-H28 cells) | phosphorylation of AKT [10] | phosphorylation of MAPK [10] | phosphorylation of S6 [10] | median overall survival [12] | response rate [12] |
| --- | --- | --- | --- | --- | --- | --- | --- | --- | --- | --- | --- | --- | --- | --- | --- | --- | --- | --- | --- |
| 230 to 1560 nM | 1.56 ± 0.52 µM | 0.74 ± 0.37 µM | 0.23 ± 0.1 µM | 53 nM | CNC(=O)c1nn(C)c2c1C(C)(C)Cc1cnc(Nc3ccc(N4CCN(C)CC4)cc3)nc1-2 [compound of formula (I), 8-[4-(4-methyl-piperazin-1-yl)-phenylamino]-1,4,4-trimethyl-4,5-dihydro-1H-pyrazolo[4,3-h]quinazoline-3-carboxylic acid methylamide] | decrease | 5% | 14% | G1 block | increase of the sub G1 peak | 24% | strong inhibition | strong inhibition | strong inhibition | Inhibition in phosphorylation | Inhibition in phosphorylation | Inhibition in phosphorylation | – | – |
| – | – | – | – | – | Nc1nc2[nH]cc(CCc3ccc(C(=O)N[C@@H](CCC(=O)O)C(=O)O)cc3)c2c(=O)[nH]1 [pemetrexed] | – | – | – | – | – | – | – | – | – | – | – | – | 10.7 months | 14.1% |
